Measured values: ChEMBL document CHEMBL6134862, “Discovery of WEE1 Kinase Inhibitors with Potent Activity against Patient-Derived, Metastatic Colorectal Cancer Organoids” (J Med Chem, 2025)

Legend:
in vivo [1] = conditions: Swiss outbred, mouse, iv, 3 mg/kg
in vivo [2] = conditions: Swiss outbred, mouse, iv, 3 mg/kg; remark: listed apart in the source
in vivo [3] = conditions: Swiss outbred, mouse, po, 10 mg/kg
physchem = conditions: buffer, pH 7.4
[4] = mouse, in vivo, po, 10 mg/kg, 24 h
in vivo [5] = conditions: Swiss outbred, mouse, iv, 3 mg/kg; remark: listed apart in the source

- AUC(0-t) at 24 h (in vivo [1]): 0.21 µM·h
- Vd at 24 h (in vivo [2]): 1.27 L/kg
- Cmax at 24 h (in vivo [3]): 26 nM
- chromatographic logD (physchem): 3.4
- AUC [4]: 0.067 µM·h
- clearance at 24 h (in vivo [5]): 75 mL/min/kg
Structure (SMILES): C=CCn1c(=O)c2cnc(Nc3ccc(N4CCN(C)CC4)cc3)nc2n1-c1cccc(C(C)(C)O)n1 [ADAVOSERTIB]
